Results reported in PubChem BioAssay (NCI).
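Results reflect a 48-hour exposure of cells in 96-well plates to compound at five concentrations. Definition used: TGI = concentration required for complete inhibition of growth.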

How the values were obtained:
Assay in all cases: NCI tumour cell line growth inhibition, 48 h
[1] = tested on: HT29 colon
[2] = tested on: MCF7 breast
[3] = tested on: NCI-H522 lung
[4] = tested on: NCI/ADR-RES ovarian
[5] = tested on: OVCAR-3 ovarian
[6] = tested on: SF-295 CNS
[7] = tested on: SK-MEL-5 melanoma
[8] = tested on: SW-620 colon
[9] = tested on: UO-31 renal
[10] = tested on: M14 melanoma
[11] = tested on: TK-10 renal
[12] = tested on: BT-549 breast

Row | Structure (SMILES) | TGI [1] | TGI [2] | TGI [3] | TGI [4] | TGI [5] | TGI [6] | TGI [7] | TGI [8] | TGI [9] | TGI [10] | TGI [11] | TGI [12]
1 | CSCSCC(CO)NC(=O)/C(C)=C\c1c(C)[nH]c(=O)[nH]c1=O (stereo not given) | > 250 µM | > 250 µM | > 250 µM | > 250 µM | > 250 µM | > 250 µM | > 250 µM | > 250 µM | > 250 µM |  |  | 
2 | O=C(N/N=C/c1cc(Br)cc(Br)c1[O-])c1ccccc1O.O=C(N/N=C/c1cc(Br)cc(Br)c1[O-])c1ccccc1O.[Zn+2] | 12.3 µM |  | 1.47 µM |  | 0.742 µM | 5.28 µM | 2.58 µM | 19.5 µM | 10.6 µM | 8.3 µM | 15 µM | 
3 | CCCCCc1c(CCCC)c(=O)[nH]c2nc(NC(=O)CCCC)ccc12 |  | > 100 µM | > 100 µM | > 100 µM | > 100 µM | > 100 µM | > 100 µM | > 100 µM | > 100 µM | > 100 µM | > 100 µM | > 100 µM
4 | Cn1c2ccccc2c(=O)c2c(O)cc3c(c21)C=CC(C)(C)O3 | > 25 µM | > 25 µM | > 25 µM | > 25 µM | > 25 µM | > 25 µM | > 25 µM | > 25 µM | > 25 µM |  |  | 
5 | O=C(c1ccccc1)N1CCC(CC2(c3cc4ccccc4[nH]3)OCCO2)CC1 | 85.9 µM | 43.9 µM |  | > 100 µM | > 100 µM | > 100 µM | 42.3 µM | > 100 µM | > 100 µM | 39.6 µM | > 100 µM | > 100 µM
6 | CCOC(=O)c1c(NC(=S)Nc2ccc(Cl)cc2)sc2c1CCN(C)C2 | > 100 µM | > 100 µM |  | > 100 µM | > 100 µM | > 100 µM | > 100 µM |  | > 100 µM | > 100 µM | > 100 µM | > 100 µM
7 | COc1nc(N)c(NC(C)=O)c(=O)n1C | > 100 µM |  |  |  |  | > 100 µM |  | > 100 µM | > 100 µM | > 100 µM | > 100 µM | 
8 | O=C(CSCC(=O)N/N=C\c1cccc([N+](=O)[O-])c1)N/N=C\c1cccc([N+](=O)[O-])c1 | > 100 µM | > 100 µM | > 100 µM | 60 µM | 84.1 µM | 30.5 µM | > 100 µM | > 100 µM | > 100 µM | > 100 µM | 36.4 µM | 
9 | O=C1NN(Cc2ccccc2)C(=O)N2CCC[C@@H]12 | > 100 µM | > 100 µM |  | > 100 µM | > 100 µM | > 100 µM | > 100 µM | > 100 µM |  | > 100 µM | > 100 µM | 
10 | Nc1ncnc2c1ncn2C1CCC(CP(=O)(O)O)C1 (stereo not given) | > 100 µM | > 100 µM |  | > 100 µM | > 100 µM | > 100 µM | > 100 µM | > 100 µM | > 100 µM | > 100 µM | > 100 µM | 
